The supplement of paper PMC10307832

Key:
Assay in all cases: relative viability (nuclei count vs DMSO), 5 days (fraction); higher = more cells survive
LCLC-103H = system: LCLC-103H
Summary of the method: (§1)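 After 5 days of treatment, lung cancer cells in 1536-well plates were fixed and stained in a single step (final 0.05% Triton X-100, 1% formaldehyde, 1 ug/ml Hoechst) and their nuclei counted on 4× images. Treatment had been applied by pin tool the day after seeding as one drug alone or as a fixed anchor-drug dose with five library-drug doses (not always all listed) in √10 steps. Relative viability is the nuclei count of treated wells divided by that of vehicle wells, and values are medians of duplicate plates.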

UMC-11 = system: UMC-11
Summary of the method: as §1

NCI-H1648 = system: NCI-H1648
Summary of the method: as §1

EKVX = system: EKVX
Summary of the method: as §1

NCI-H1755 = system: NCI-H1755
Summary of the method: as §1

NCI-H1395 = system: NCI-H1395
Summary of the method: as §1

HCC-44 = system: HCC-44
Summary of the method: as §1

HCC-15 = system: HCC-15
Summary of the method: as §1

Structure (SMILES): CC(=O)O[C@@]12CO[C@@H]1C[C@H](O)[C@@]1(C)C(=O)[C@H](O)C3=C(C)[C@@H](OC(=O)[C@H](O)[C@@H](NC(=O)OC(C)(C)C)c4ccccc4)C[C@@](O)([C@@H](OC(=O)c4ccccc4)[C@H]21)C3(C)C [Docetaxel] + CC(=O)Nc1cccc(-n2c(=O)n(C3CC3)c(=O)c3c(Nc4ccc(I)cc4F)n(C)c(=O)c(C)c32)c1 [Trametinib] (partner 0.02 µM)
- relative viability (LCLC-103H; first compound 0.0002 µM): 0.675
- relative viability (LCLC-103H; first compound 0.000632 µM): 0.697
- relative viability (LCLC-103H; first compound 0.002 µM): 0.727
- relative viability (LCLC-103H; first compound 0.006325 µM): 0.782
- relative viability (LCLC-103H; first compound 0.02 µM): 0.592
- relative viability (UMC-11; first compound 0.0002 µM): 0.62
- relative viability (UMC-11; first compound 0.000632 µM): 0.788
- relative viability (UMC-11; first compound 0.002 µM): 0.358
- relative viability (UMC-11; first compound 0.006325 µM): 0.216
- relative viability (UMC-11; first compound 0.02 µM): 0.147
- relative viability (NCI-H1648; first compound 0.0002 µM): 0.435
- relative viability (NCI-H1648; first compound 0.000632 µM): 0.456
- relative viability (NCI-H1648; first compound 0.002 µM): 0.367
- relative viability (NCI-H1648; first compound 0.006325 µM): 0.288
- relative viability (NCI-H1648; first compound 0.02 µM): 0.193
- relative viability (EKVX; first compound 0.0002 µM): 0.343
- relative viability (EKVX; first compound 0.000632 µM): 0.358
- relative viability (EKVX; first compound 0.002 µM): 0.185
- relative viability (EKVX; first compound 0.006325 µM): 0.286
- relative viability (EKVX; first compound 0.02 µM): 0.131
- relative viability (NCI-H1755; first compound 0.0002 µM): 0.766
- relative viability (NCI-H1755; first compound 0.000632 µM): 0.743
- relative viability (NCI-H1755; first compound 0.002 µM): 0.555
- relative viability (NCI-H1755; first compound 0.006325 µM): 0.415
- relative viability (NCI-H1755; first compound 0.02 µM): 0.381
- relative viability (NCI-H1395; first compound 0.0002 µM): 1.04
- relative viability (NCI-H1395; first compound 0.000632 µM): 1.06
- relative viability (NCI-H1395; first compound 0.002 µM): 0.907
- relative viability (NCI-H1395; first compound 0.006325 µM): 0.467
- relative viability (NCI-H1395; first compound 0.02 µM): 0.297
- relative viability (HCC-44; first compound 0.0002 µM): 1.04
- relative viability (HCC-44; first compound 0.000632 µM): 1
- relative viability (HCC-44; first compound 0.002 µM): 1.07
- relative viability (HCC-44; first compound 0.006325 µM): 0.577
- relative viability (HCC-44; first compound 0.02 µM): 0.472
- relative viability (HCC-15; first compound 0.0002 µM): 0.401
- relative viability (HCC-15; first compound 0.000632 µM): 0.313
- relative viability (HCC-15; first compound 0.002 µM): 0.193
- relative viability (HCC-15; first compound 0.006325 µM): 0.247
- relative viability (HCC-15; first compound 0.02 µM): 0.159

Structure (SMILES): CC(=O)O[C@@]12CO[C@@H]1C[C@H](O)[C@@]1(C)C(=O)[C@H](O)C3=C(C)[C@@H](OC(=O)[C@H](O)[C@@H](NC(=O)OC(C)(C)C)c4ccccc4)C[C@@](O)([C@@H](OC(=O)c4ccccc4)[C@H]21)C3(C)C [Docetaxel] + CC(=O)c1c(C)c2cnc(Nc3ccc(N4CCNCC4)cn3)nc2n(C2CCCC2)c1=O [Palbociclib] (partner 0.5 µM)
- relative viability (LCLC-103H; first compound 0.0002 µM): 0.496
- relative viability (LCLC-103H; first compound 0.000632 µM): 0.532
- relative viability (LCLC-103H; first compound 0.002 µM): 0.5
- relative viability (LCLC-103H; first compound 0.006325 µM): 0.598
- relative viability (LCLC-103H; first compound 0.02 µM): 0.57
- relative viability (UMC-11; first compound 0.0002 µM): 0.322
- relative viability (UMC-11; first compound 0.000632 µM): 0.357
- relative viability (UMC-11; first compound 0.002 µM): 0.294
- relative viability (UMC-11; first compound 0.006325 µM): 0.266
- relative viability (UMC-11; first compound 0.02 µM): 0.234
- relative viability (NCI-H1648; first compound 0.0002 µM): 0.265
- relative viability (NCI-H1648; first compound 0.000632 µM): 0.26
- relative viability (NCI-H1648; first compound 0.002 µM): 0.271
- relative viability (NCI-H1648; first compound 0.006325 µM): 0.249
- relative viability (NCI-H1648; first compound 0.02 µM): 0.247
- relative viability (EKVX; first compound 0.0002 µM): 0.337
- relative viability (EKVX; first compound 0.000632 µM): 0.36
- relative viability (EKVX; first compound 0.002 µM): 0.245
- relative viability (EKVX; first compound 0.006325 µM): 0.242
- relative viability (EKVX; first compound 0.02 µM): 0.149
- relative viability (NCI-H1755; first compound 0.0002 µM): 0.466
- relative viability (NCI-H1755; first compound 0.000632 µM): 0.489
- relative viability (NCI-H1755; first compound 0.002 µM): 0.5
- relative viability (NCI-H1755; first compound 0.006325 µM): 0.41
- relative viability (NCI-H1755; first compound 0.02 µM): 0.406
- relative viability (NCI-H1395; first compound 0.0002 µM): 0.589
- relative viability (NCI-H1395; first compound 0.000632 µM): 0.638
- relative viability (NCI-H1395; first compound 0.002 µM): 0.5
- relative viability (NCI-H1395; first compound 0.006325 µM): 0.42
- relative viability (NCI-H1395; first compound 0.02 µM): 0.274
- relative viability (HCC-44; first compound 0.0002 µM): 0.904
- relative viability (HCC-44; first compound 0.000632 µM): 1.01
- relative viability (HCC-44; first compound 0.002 µM): 0.968
- relative viability (HCC-44; first compound 0.006325 µM): 0.691
- relative viability (HCC-44; first compound 0.02 µM): 0.632
- relative viability (HCC-15; first compound 0.0002 µM): 0.643
- relative viability (HCC-15; first compound 0.000632 µM): 0.383
- relative viability (HCC-15; first compound 0.002 µM): 0.228
- relative viability (HCC-15; first compound 0.006325 µM): 0.247
